# Source: patent US20100119489A1, “Stimulation of Pancreatic Beta Cell Proliferation” (priority 2005, published 2010)
# B1: TMEM27 full-length protein (other, mouse, UniProt Q9ESG4 15-222, looked up)
# chain: ELCHPDAENAFKVRLSIRAALGDKAYVWDTDQEYLFRAMVAFSMRKVPNREATEISHVLLCNITQRVSFWFVVTDPSNNYTLPAAEVQSAIRKNRNRINSAFFLDDHTLEFLKIPSTLAPPMEPSVPVWIIVFGVIFCIVTVAIALLVLSGIRQRRRNNKGPPGVEDAEDKCENIITIENGIPCDPLDMKGGHINDGFLTEDERLTPL
# modifications: N-glycosylated (predicted N-glycosylation sites at amino acid residues 76 and 93)
# notes: Detected in cell or islet lysates (Western blot) and in fixed, permeabilized MIN6 cells; It also differs from the immunizing peptides, so it is not used here; the transgenic construct uses murine cDNA; also called TMEM protein
# Experiments:
# TMEM27 [1] = assay: Shedding of TMEM27 from MIN6 cells (immunoblot of supernatant, N-terminus; anti-V5 C-terminus as control); format: cell-based; settings: 2 hrs in OPTI-MEM
# Method: The pancreatic beta-cell line MIN6 was cultured with DMEM medium containing 25 mM glucose, 15% fetal bovine serum, and 5.5 μM 2-mercaptoethanol. MIN6 cells were plated at 50% confluency in 12 well plates and incubated for 24 hrs. Cells were washed with OPTI-MEM (Invitrogen) and incubated with either DMSO or protease inhibitor BB94 (1 μM) for 15 minutes in OPTI-MEM at 37° C. After the above incubation, cells were incubated with DMSO, PMA (Sigma P8139), BB94, or PMA+BB94 for 2 hrs in OPTI-MEM. 30 μl of each supernatant was collected for SDS-PAGE. Immunoblots were performed using anti-TMEM27 antibodies recognizing the N-terminus (cleaved portion) of TMEM27 (FIG. 8). […] Since BB94 is a known inhibitor of serine proteases and metalloproteases, this may indicate that TMEM27 is a substrate of a protease belonging to serine protease or metalloprotease family.
# TMEM27 [2] = assay: Inhibition of N-glycosylation of TMEM27 in MIN6 cells (SDS-PAGE, immunoblot); format: cell-based; settings: increasing concentrations of tunicamycin, 12 hours at 37° C.
# Method: (§1) (A) MIN6 cells were incubated with increasing amounts of tunicamycin, which inhibits glycosylation at asparagine residues. Addition of DMSO alone to the cells had no effect. (B) Supernatant from MIN6 cells was incubated with N-glycanase. […] Secreted protein was detected with anti-Col-3 antibody. (C) MIN6 cell lysates were incubated with either PBS or cross-linking reagents DTBP and BMH. […] Under reducing conditions, only the monomer was detected in PBS and DTBP-treated cell lysates. In contrast, the dimer persisted in BMH-treated samples as BMH cross-linking could not be reversed.
# MIN6 cells that express pV5-TMEM27 were incubated with indicated concentrations of tunicamycin (Sigma) dissolved in DMSO and with DMSO alone for 12 hours at 37° C. Cell lysates were then subjected to SDS-PAGE and immunoblotting with anti-V5 antibody.
# TMEM27 contains two predicted N-glycosylation sites at amino acid residues 76 and 93. MIN6 cells were treated with tunicamycin, which inhibits N-glycosylation. Cells were incubated in the presence of increasing concentrations of tunicamycin, and protein extracts were prepared and analyzed by SDS-PAGE and immunoblotting.
# [3] = target: the molecule itself; assay: chemical cross-linking (DTBP, BMH) of MIN6 cell lysates, reducing and non-reducing SDS-PAGE, immunoblot
# Method: as §1
# Chemical cross-linking experiments testing whether TMEM27 protein exists as a multimer were conducted. MIN6 cell extracts were incubated in the presence of two different cross-linking reagents; BMH (bismaleimidohexane), a membrane-permeable, non-cleavable compound and DTBP (dimethyl 3,3′-dithiobispropionimidate), a membrane permeable, cleavable compound prior to SDS-PAGE analysis that was performed under reducing and non-reducing conditions. […] However, the protein dimers disappeared under reducing conditions in the presence of DTBP (FIG. 3b). The results were similar in MIN6 cells that endogenously express TMEM27 and in N2A cells that were transiently transfected with TMEM27 expression vector (data not shown).
molecule,measurement,setting,value
"CCCCCCCCCCCCCC(=O)O[C@@H]1[C@@H](C)[C@@]2(O)[C@@H](C=C(CO)C[C@]3(O)C(=O)C(C)=C[C@@H]23)[C@@H]2C(C)(C)[C@]12OC(C)=O [PMA, phorbol 12-myristate 13-acetate]","expression levels of TMEM27 (C-terminus, anti-V5 antibody control)",TMEM27 [1],do not change the expression levels of TMEM27
tunicamycin,effect on TMEM27 bands (N-glycosylation),TMEM27 [2],Two bands with increased electrophoretic mobility appeared
B1,binding result,[3],binds
